Patent US9655981B2, “Mixed micelles” (Omeros Corporation, priority 2011, dated 2017)

Key:
MDA-MB-435-MDR cells = assay: Cytotoxicity, MTS assay; details: 4 hours treatment, viability after 24 hours, 16 μg/mL DOX
Procedure: The cell lines which were used were the MDA-MB-435 (Parent) and MDA-MB-435-MDR (MDR) cell lines.
Cytotoxicity was measured by treating MDA-MB-435 (Parent) and MDA-MB-435-MDR cells for 4 hours with free doxorubicin and encapsulated doxorubicin using various formulations of mixed micelles. After 4 hours the doxorubicin was rinsed from the cells. After 24 hours the cell viability was measured using an MTS assay. MDA-MB-435 cells were treated with 4 μg/mL DOX, and […] cells were treated with 16 μg/mL DOX.

[1] = Stability of ICG in micelles in vitro (decay of fluorescence emission in water); assay type: physicochemical; details: within forty-eight hours, deionized water, dark
Text: ICG has advantageous fluorescence properties for near-infrared imaging (NIR) in vivo but limitations include the molecule's photo, aqueous, and thermal instability as well as rapid binding to blood proteins and subsequent clearance by the liver. See, e.g., Cherrick, J. Clin. Invest. 39:592-600 (1959) and Kirchherr, et al., Mol. Pharmaceut. 6:480-491 (2009). Aqueous degradation of ICG occurs as a result of double bond saturation in the molecule's conjugated chain, and sequestering the molecule from the solvent radicals that activate this process reduces the rate of its degradation. See, e.g., Kirchherr et al., and Altinoglu and Adair, Wiley Interdisciplinary Reviews—Nanomedicine and Nanobiotechnology, 2:[…] (2010). To test the ability of the mixed micelle systems to stabilize ICG, the fluorescence of encapsulated dye was monitored over time at both room temperature and 37° C.
Stability of ICG in mixed micelles was evaluated by measuring decay of fluorescence emission in solution over a period of approximately ten days. […] At predetermined intervals, each mixture was sampled and the fluorescence intensity of the sample was evaluated with excitation at 775 nm and emission from 786 to 850 nm.

Structure (SMILES) | cytotoxicity (cell viability, in words) (MDA-MB-435-MDR cells) | ICG fluorescence, % of original fluorescence value ([1]; 37° C.) | ICG fluorescence, % of original fluorescence value ([1]; room temperature)
COc1cccc2c1C(=O)c1c(O)c3c(c(O)c1C2=O)C[C@@](O)(C(=O)CO)C[C@@H]3O[C@H]1C[C@H](N)[C@H](O)[C@H](C)O1 [Unencapsulated DOX, Doxorubicin] | limited effect | – | –
CC1(C)C(/C=C/C=C/C=C/C=C2\N(CCCCS(=O)(=O)O)c3ccc4ccccc4c3C2(C)C)=[N+](CCCCS(=O)(=O)[O-])c2ccc3ccccc3c21 [free ICG, indocyanine green] | – | less than 10% | less than 10%
